In patent US10280163B2 (BeiGene, Ltd., priority 2015, dated 2019) one finds EC50 and IC50 data, which are given here for 33 compounds.

Counter-ions that a name gives are not always drawn. Like-named read-outs stand apart in the source and are kept apart here.

In test [1] the target is T1, cellular IDO1 in HeLa cells (Homo sapiens, UniProt P14902).
T1 construct: endogenous in cells; host or cells: HeLa cells (American Type Tissue Culture Collection), induced with human recombinant IFN-γ
Nature of the test: HeLa cell-based IDO1 Kyn (kynurenine) production assay. The conditions noted are these: IFN-γ 100 ng/mL, 48 hours. On the procedure: HeLa Cell-Based IDO1 Kyn (Kynurenine) Production Assay:
The inhibitory activity of IDO1 inhibitors is determined by using a colorimetric reaction to measure Kyn generated from L-Trp (L-Tryptophon) oxidation by cellular IDO1 in HeLa cells after induction of IDO1 by IFN-γ.
Hela cells were obtained from the American Type Tissue Culture Collection and recovered in 10% FBS-containing phenol red-free DMEM medium supplemented with 0.4 mM L-Trp. Cells were plated onto a 96-well plate (100 μl/well) at 8000 cells per well. Human recombinant IFN-γ (8901SC, CST) was added to cells (final concentration 100 ng/mL) to stimulate endogenous IDO1. Compounds at different concentrations diluted in dimethylsulfoxide (DMSO) were added simultaneously with IFN-γ. Cells were kept at 37° C. in a humidified incubator supplied with 5% CO2. After 48 hours of incubation, 100 μl supernatant from each well was removed to a new plate. The protein in the medium was precipitated with the addition of 8 μl 6N trichloroacetic acid. The plate was incubated at 60° C. for 45 min and then centrifugation at 2500 rpm for 10 min to remove sediments. 80 μl supernatants were carefully removed to a new clean plate and added with an equal volume of 2% 4-(Dimethylamino) benzaldehyde (D2004, sigma) dissolved in glacial acetic acid. The absorbance at 480 nm wavelength derived from Kyn was measured using a FULOstar OMEGA plate reader (BMG LABTECH). The IC50 for each compound was derived from fitting the dose-response data to the four-parameter logistic model by using Graphpad Prism software.

Test [2] addresses T2, Recombinant IDO1 (Homo sapiens, UniProt P14902).
T2 construct: His tag (N); made in house; host or cells: E. coli
Put plainly: IDO1 enzymatic assay. Particulars: 50 nM IDO1, 1.3 mM D-tryptophan, read-out: Enzyme IC50 (nM) IDO1. Format: biochemical. On the procedure: Recombinant IDO1 was overexpressed and purified from E. coli cells with an N-terminal His tag. IDO1 enzymatic assay was carried out using a methodology similar to described in the literature (J. Biol. Chem. (1980), 255, 1339-1345.). The reaction mixture contains 50 nM IDO1, 1.3 mM D-tryptophan, 5 mM L-ascorbic acid, 6.25 μM methylene Blue, 0.4 mg/mL catalase and compound (or DMSO) in a buffer containing 50 mM potassium phosphate pH 7.5 and 0.1% BSA. After incubation at 24° C. for 1.5 hours, absorbance of the reaction mixture was continuously read at 321 nm to monitor the formation of N′-formylkynurenine by a FULOstar OMEGA plate reader (BMG LABTECH) for 1 hour. The enzymatic activity was determined by measuring the slope of the linear absorbance increase as a function of time. The IC50s are calculated based on remaining enzyme activity in the presence of increasing concentrations of compounds.

Setting [3] is: Table 1, 5-substituted imidazo[1,5-a]pyridines.
[4] abbreviates: Table 2, 8-substituted imidazo[1,5-a]pyridines.

In general, EC50 refers to the concentration that produces a half-maximal response. Read a low EC50 as greater potency. As usually defined, the IC50 is the point on the concentration scale where inhibition reaches its midpoint.

T2 sequence (P14902 whole entry): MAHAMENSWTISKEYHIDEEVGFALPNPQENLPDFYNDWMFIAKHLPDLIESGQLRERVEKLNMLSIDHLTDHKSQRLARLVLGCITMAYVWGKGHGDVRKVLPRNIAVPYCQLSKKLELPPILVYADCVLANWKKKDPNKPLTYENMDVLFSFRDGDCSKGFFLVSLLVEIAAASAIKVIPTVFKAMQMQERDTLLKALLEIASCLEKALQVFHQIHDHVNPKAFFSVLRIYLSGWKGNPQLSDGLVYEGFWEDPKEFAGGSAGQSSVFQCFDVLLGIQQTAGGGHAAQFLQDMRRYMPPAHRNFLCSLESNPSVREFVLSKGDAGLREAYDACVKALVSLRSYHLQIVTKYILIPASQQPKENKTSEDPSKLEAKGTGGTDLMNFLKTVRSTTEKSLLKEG
T1 sequence (P14902 whole entry): as above

In the case of “1-(7-bromo-8-chloroimidazo[1,5-a]pyridin-5-yl)-2-cyclohexylethan-1-ol [Example A147]”, the EC50 in test [1] (setting [3]) was found to be 2790 nM. The 50% inhibitory concentration (IC50) in test [2] (setting [3]) was determined as 420 nM.

In turn, `OC(c1c(C2CC2)ccn2cncc12)C1CCC(c2ccccc2)CC1` (mixture of isomers) [Example B143, (7-cyclopropylimidazo[1,5-a]pyridin-8-yl)(4-phenylcyclohexyl)methanol] gave an EC50 in test [1] (setting [4]) of 149 nM. In test [2] (setting [4]), the IC50 worked out at 100 nM.

As to `OC1CCCC(C(O)c2c(C3CC3)ccc3cncn23)C1` (racemic) [Example A164a, 3-((6-Cyclopropylimidazo[1,5-a]pyridin-5-yl)(hydroxy)methyl)cyclohexan-1-ol], the midpoint of the response in test [1] (setting [3]), the EC50, lay at 598 nM. In addition, the IC50 in test [2] (setting [3]) stood at 71 nM.

With `OC1CCCC(C(O)c2c(C3CC3)ccc3cncn23)C1` (racemic) [Example A164c, 3-((6-Cyclopropylimidazo[1,5-a]pyridin-5-yl)(hydroxy)methyl)cyclohexan-1-ol], the midpoint of the response in test [1] (setting [3]), the EC50, lay at 570 nM. Moreover, the IC50 in test [2] (setting [3]) was 54 nM.

As for `OC(c1c([C@H]2C[C@H]2F)ccn2cncc12)C1CCCCC1` (mixture of isomers) [Example B126b, cyclohexyl(7-(cis-2-fluorocyclopropyl)imidazo [1,5-a]pyridin-8-yl)methanol], in test [1] (setting [4]), a half-maximal response (EC50) required 676 nM. Moreover, the IC50 in test [2] (setting [4]) amounted to 340 nM.

Compound `OC(CC1CCCCC1)c1c([C@H]2C[C@H]2F)ccn2cncc12` (mixture of isomers) [Example B127b, 2-Cyclohexyl-1-(7-(cis-2-fluorocyclopropyl)imidazo[1,5-a]pyridin-8-yl)ethan-1-ol] displayed an EC50 in test [1] (setting [4]) of 1130 nM. Moreover, the IC50 in test [2] (setting [4]) is 93 nM.

Compound `OC(c1c([C@H]2C[C@@H]2F)ccn2cncc12)C1CCCCC1` (mixture of isomers) [Example B128a, Cyclohexyl(7-((trans)-2-fluorocyclopropyl)imidazo[1,5-a]pyridin-8-yl)methanol] yielded an EC50 in test [1] (setting [4]) of 184 nM. In addition, the IC50 in test [2] (setting [4]) turned out to be 100 nM.

With `OC(c1c([C@H]2C[C@H]2F)ccn2cncc12)C1CCCCC1` (relative stereo) [Example B126a, cyclohexyl(7-(cis-2-fluorocyclopropyl)imidazo [1,5-a]pyridin-8-yl)methanol], the EC50 in test [1] (setting [4]) was found to be 942 nM. In addition, the IC50 in test [2] (setting [4]) is 340 nM.

In test [1] (setting [4]), `OC(CC1CCCCC1)c1c([C@H]2C[C@H]2F)ccn2cncc12` (relative stereo) [Example B127a, 2-Cyclohexyl-1-(7-(cis-2-fluorocyclopropyl)imidazo[1,5-a]pyridin-8-yl)ethan-1-ol] registered an EC50 of 595 nM. In test [2] (setting [4]), the IC50 was determined as 88 nM.

On to `OC(c1cccc2cncn12)C1CCCCC1` (single isomer, unassigned) [Example A001b], for which, in test [2] (setting [3]), the IC50 was found to be 11000 nM.

Regarding `OC1CCC(C(O)c2c(C3CC3)ccc3cncn23)CC1` (single isomer, unassigned) [Example A142b], the midpoint of the response in test [1] (setting [3]), the EC50, lay at 312 nM. In addition, the concentration for half-maximal inhibition (IC50) in test [2] (setting [3]) worked out at 31 nM.

In test [1] (setting [3]), `OC1CCC([C@@H](O)c2c(C3CC3)ccc3cncn23)CC1` (single isomer, unassigned) [Example A142c] registered an EC50 of over 10000 nM. In addition, the IC50 in test [2] (setting [3]) was 2000 nM.

Compound `OC1CCC([C@@H](O)c2c(C3CC3)ccc3cncn23)CC1` (single isomer, unassigned) [Example A142d] came in with an EC50 in test [1] (setting [3]) of over 10000 nM. In addition, in test [2] (setting [3]), the IC50 was 9200 nM.

`CC(C)c1ccn2cncc2c1C(O)C1CCCCC1` (single isomer, unassigned) [Example B106a] showed an EC50 in test [1] (setting [4]) of 129 nM. Further, the IC50 in test [2] (setting [4]) is 23 nM.

Compound `CC(C)c1ccn2cncc2c1C(O)C1CCCCC1` (single isomer, unassigned) [Example B106b] showed a concentration for a half-maximal effect (EC50) in test [1] (setting [4]) of over 10000 nM. The IC50 in test [2] (setting [4]) is 1800 nM.

Turning to `OC(CC1CCCCC1)c1c(C2CC2)ccn2cncc12` (single isomer, unassigned) [Example B110a], in test [1] (setting [4]), the EC50 turned out to be 215 nM. Also, the IC50 in test [2] (setting [4]) was 18 nM.

In test [1] (setting [4]), `OC(CC1CCCCC1)c1c(C2CC2)ccn2cncc12` (single isomer, unassigned) [Example B110b] gave an EC50 of over 10000 nM. Further, in test [2] (setting [4]), the IC50 was determined as 4.9 nM.

For `OC(c1c(C2CC2)ccn2cncc12)[C@H]1CC[C@H](O)CC1` (single isomer, unassigned) [Example B119a, (trans)-4-((7-Cyclopropylimidazo[1,5-a]pyridin-8-yl)(hydroxy)methyl)cyclohexan-1-ol], in test [1] (setting [4]), the 50% effective concentration (EC50) was found to be 1360 nM. The concentration for half-maximal inhibition (IC50) in test [2] (setting [4]) came out at 280 nM.

As for `OC(c1cccc2cncn12)C1CCCC1` (centres unmarked) [Example A002, cyclopentyl(imidazo[1,5-a]pyridin-5-yl)methanol], in test [2] (setting [3]), the IC50 was 150 nM.

As to `OC(c1cccc2cncn12)C1CC1` (centres unmarked) [Example A003, cyclopropyl(imidazo[1,5-a]pyridin-5-yl)methanol], the IC50 in test [2] (setting [3]) amounted to 3800 nM.

In the case of `C#CC(O)c1cccc2cncn12` (centres unmarked) [Example A006, 1-(imidazo[1,5-a]pyridin-5-yl)prop-2-yn-1-ol], the 50% inhibitory concentration (IC50) in test [2] (setting [3]) worked out at 4600 nM.

Take `OC(c1ccccc1)c1cccc2cncn12` (centres unmarked) [Example A007, imidazo[1,5-a]pyridin-5-yl(phenyl)methanol]: the IC50 in test [2] (setting [3]) amounted to 5100 nM.

Consider `OC(c1cccc2cncn12)C1CCOCC1` (centres unmarked) [Example A010, imidazo[1,5-a]pyridin-5-yl(tetrahydro-2H-pyran-4-yl)methanol], for which the IC50 in test [2] (setting [3]) is 3100 nM.

With `CC(C)(C)OC(=O)N1CCC(C(=O)c2cccc3cncn23)CC1` [Example A011, Tert-butyl 4-(imidazo[1,5-a]pyridine-5-carbonyl)piperidine-1-carboxylate], the IC50 in test [2] (setting [3]) is over 100000 nM.

For the compound `CC(C)(C)OC(=O)N1CCC(C(O)c2cccc3cncn23)CC1` (centres unmarked) [Example A012, Tert-butyl 4-(hydroxy(imidazo[1,5-a]pyridin-5-yl)methyl)piperidine-1-carboxylate], in test [2] (setting [3]), the IC50 was 41000 nM.

Consider `OC(c1cccc2cncn12)C1CCNCC1` (centres unmarked) [Example A013, Imidazo[1,5-a]pyridin-5-yl(piperidin-4-yl)methanol hydrochloride], for which the IC50 in test [2] (setting [3]) is over 100000 nM.

On to `CN1CCC(C(O)c2cccc3cncn23)CC1` (centres unmarked) [Example A014, Imidazo[1,5-a]pyridin-5-yl(1-methylpiperidin-4-yl)methanol], for which the IC50 in test [2] (setting [3]) is over 100000 nM.

With `CC(O)c1cccc2cncn12` (centres unmarked) [Example A017, 1-(imidazo[1,5-a]pyridin-5-yl)ethan-1-ol], the IC50 in test [2] (setting [3]) is 62000 nM.

As to `OC(c1cccc2cncn12)C1CCC1` (centres unmarked) [Example A018, cyclobutyl(imidazo[1,5-a]pyridin-5-yl)methanol], the IC50 in test [2] (setting [3]) was found to be 1800 nM.

For the compound `OC(Cc1ccccc1)c1cccc2cncn12` (centres unmarked) [Example A019, 1-(imidazo[1,5-a]pyridin-5-yl)-2-phenylethan-1-ol], the half-maximal inhibitory concentration (IC50) in test [2] (setting [3]) was determined as 21000 nM.

For `OC(c1ccc(Br)c2cncn12)C1CCCCC1` (centres unmarked) [Example A023, (8-bromoimidazo[1,5-a]pyridin-5-yl)(cyclohexyl)methanol], in test [2] (setting [3]), the IC50 is 6500 nM.

As for `OC(c1ccc(Cl)c2cncn12)C1CCCCC1` (centres unmarked) [Example A024, (8-chloroimidazo[1,5-a]pyridin-5-yl)(cyclohexyl)methanol], in test [2] (setting [3]), the IC50 amounted to 3300 nM.

On to `O=C(c1ccccc1)c1cccn2cncc12` [Example B003, Imidazo[1,5-a]pyridin-8-yl(phenyl)methanone], for which, in test [2] (setting [4]), the IC50 was over 100000 nM.
